These results are taken from US4798834A, “Optionally substituted (3β-9,10-didehydro-2,3-dihydro ergoline as serotonergic function enhancement” (Eli Lilly and Company, priority 1987, dated 1989).

Broadly, the IC50 is the concentration that inhibits the measured activity by half.

Each structure is given as a SMILES string. Entries after “also recorded” stand apart in the source; their conditions may differ. A value given as a limit tells only on which side of the number the result lay.

One assay deals with 5-HT1 receptor. The assay can be described thus: binding to 5-HT1 sites ([3H]serotonin displacement, rat brain frontal cortex). The arrangement: species or system rat (Wistar). The settings on record: for IC50: 2 nM [3H]serotonin, rat frontal cortex; for Selectivity Ratio: IC50 5HT2 / IC50 5HT1, values greater than 1 indicate selectivity for the 5HT1 receptor. How it is done: All radioactive ligands were obtained from New England Nuclear, Boston, Mass., USA. Specific binding was determined as the difference between total binding and nonspecific binding. Eleven concentrations of each of the compounds tested were used between 0.1 and 10,000 nM. All samples were run in duplicate.

Another assay deals with serum corticosterone. The assay is described as follows: corticosterone concentrations in the serum of rats. The settings on record: sc; subcutaneous; rat, 1 h after injection; p<0.05 vs control; read-out: Minimum effective dose increasing serum corticosterone. Format: in vivo, rat (Wistar). How it is done:
(§1) Male Wistar rate (HSD/[WI]BR) weighing about 150 g were kept in a temperature-controlled (24° C.) and light-controlled room (lights on from 7:00 A.M. to 7:00 P.M.) with food and water freely available. The compounds to be tested were dissolved in dilute hydrochloric acid and injected subcutaneously. Five rats per group were used in each experiment. The rats were decapitated one hour after injection and the brains were excised quickly, frozen on dry ice and stored at -15° C. before analysis. […] See Fuller et al., Biochem. Pharmacol. 1977, 26, 2087 and Perry et al., Soc. Neurosci. Abstr. 1979, 5, 348. Serum corticosterone levels were determined spectrofluorometrically by the method of Solem et al., Scand. J. Clin. Lab. Invest. 1965, 17, suppl. 80, 1.
The minimum effective doses of these same compounds which produced a statistically significant decrease in 5-HIAA concentration and a statistically significant increase in serum corticosterone concentration are shown in Table II. The minimum effective dose is the lowest dose producing significant differences from a control group (p<0.05).

In assay [1] the test system is 5-hydroxytryptophan in rat hypothalamus. The assay is described as follows: accumulation of 5-hydroxytryptophan in rat hypothalamus (NSD-1015 treated rats). It is filed as in vivo, rat (Wistar). The settings on record: for 5-Hydroxytryptophan Concentration in Hypothalamus: NSD-1015 100 mg/kg i.p., mean ± SE, n=5, control 1.92 ± 0.07, significant decrease p<0.01. As for the experimental part: as §1
The protocol previously described for neurochemical determinations was repeated with the following modification. To each of the five rats in the treatment group was administered the amino acid decarboxylase inhibitor m-hydroxybenzylhydrazine (also known as NSD-1015). See Euvard et al., Eur. J. Pharmacol. 1980, 63, 65 and Hamon et al., Arch. Pharmacol. 1976, 294, 99. The NSD-1015 was administered at a dose of 100 mg/kg (intraperitoneal) 30 minutes before decapitation and 30 minutes after the dose of the test compound of Example 1 was given.

A further assay addresses T1, 5-HT2 receptor (Rattus norvegicus, UniProt P14842).
T1 construct: Rat brain frontal cortex from male Wistar rats; from tissue; host or cells: rat brain frontal cortex (male Wistar), membrane pellet
The assay is described as follows: binding to 5-HT2 sites ([3H]spiperone displacement, rat brain frontal cortex). The arrangement: species or system rat (Wistar). How it is done: The pellet from the frontal cortex homogenates was suspended in 0.05 molar (M) Tris buffer containing 10 micromolar (μM) pargyline and 4 millimolar (mM) Ca^++ to give a final protein concentration of 250-350 microgram (μg) per sample. […] All radioactive ligands were obtained from New England Nuclear, Boston, Mass., USA. Specific binding was determined as the difference between total binding and nonspecific binding. Eleven concentrations of each of the compounds tested were used between 0.1 and 10,000 nM. All samples were run in duplicate.

For assay [2], the system named is serotonin and 5-HIAA in rat brain. The assay can be described thus: animal or person. Format: in vivo, rat (Wistar). The settings on record: sc, subcutaneous, 1 h after injection, p<0.05 vs control, read-out: Minimum effective dose suppressing 5-HIAA. How it is done: Male Wistar rate (HSD/[WI]BR) weighing about 150 g were kept in a temperature-controlled (24° C.) and light-controlled room (lights on from 7:00 A.M. to 7:00 P.M.) with food and water freely available. The compounds to be tested were dissolved in dilute hydrochloric acid and injected subcutaneously. Five rats per group were used in each experiment. The rats were decapitated one hour after injection and the brains were excised quickly, frozen on dry ice and stored at -15° C. before analysis. […] Neurosci. Abstr. […] Serum corticosterone levels were determined spectrofluorometrically by the method of Solem et al., Scand. J. Clin. Lab. Invest. […] 80, 1.

T1 sequence (P14842 whole entry): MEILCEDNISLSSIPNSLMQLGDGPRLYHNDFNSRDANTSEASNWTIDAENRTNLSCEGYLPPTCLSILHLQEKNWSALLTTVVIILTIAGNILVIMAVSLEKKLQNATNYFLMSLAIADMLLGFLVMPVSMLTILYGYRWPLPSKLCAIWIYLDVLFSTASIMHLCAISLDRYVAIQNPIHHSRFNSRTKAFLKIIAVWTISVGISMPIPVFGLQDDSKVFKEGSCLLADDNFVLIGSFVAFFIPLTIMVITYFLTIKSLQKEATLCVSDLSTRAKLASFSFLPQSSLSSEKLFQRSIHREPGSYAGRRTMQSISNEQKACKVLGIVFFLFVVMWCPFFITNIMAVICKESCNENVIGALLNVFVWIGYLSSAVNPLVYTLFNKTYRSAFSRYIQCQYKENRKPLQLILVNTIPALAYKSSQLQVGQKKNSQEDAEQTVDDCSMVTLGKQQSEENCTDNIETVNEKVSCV

As to `C[C@@H]1C=C2c3cccc4c3[C@@H](CN4)C[C@H]2N(C)C1` [Example 1, (3β)-2,3-Dihydrolysergine], the IC50 at 5-HT1 receptor was 17 nM; at 5-HT2 receptor, 1660 nM. Also, the values for the minimal effective dose (in the assay on serum corticosterone; in assay [2]) were 0.1 mg/kg and 0.03 mg/kg, respectively. Besides, the “5-Hydroxytryptophan Concentration in Hypothalamus” value in assay [1] (0.01 mg/kg subcutaneous) is 1.64 ± 0.07 nanomoles per gram; in assay [1] (0.03 mg/kg subcutaneous), 1.19 ± 0.05 nanomoles per gram; in assay [1] (0.1 mg/kg subcutaneous) it was 0.73 ± 0.02 nanomoles per gram; in assay [1] (0.3 mg/kg subcutaneous), 0.71 ± 0.02 nanomoles per gram. Besides, the “5-hydroxytryptophan accumulation in the hypothalamus (in words)” value in assay [1] (NSD-1015 treated rats, 0.01-0.3 mg/kg subcutaneous) was “dose related decrease in 5-hydroxytryptophan accumulation; also recorded: Significant effects were detected at all of the doses used”. Further, the “dose of maximal reduction of serotonin turnover” value in assay [1] (NSD-1015 treated rats, subcutaneous) amounted to 0.1 mg/kg.
`C[C@H]1C=C2c3cccc4c3[C@@H](CN4)C[C@H]2N(C)C1` [Example 2, (3β)-2,3-Dihydroisolysergine]: the results for the IC50 on 5-HT1 receptor and on 5-HT2 receptor were 20 nM and over 1000 nM, respectively. Moreover, in the assay on 5-HT1 receptor, the “Selectivity Ratio” value is “at least 100”. Also, the minimal effective dose came out at 0.003 mg/kg with serum corticosterone and 0.001 mg/kg in assay [2].
As to `CN1C[C@H](CO)C=C2c3cccc4c3[C@@H](CN4)C[C@H]21` [Example 3, (3β)-2,3-Dihydrolysergol], the values for the IC50 on 5-HT1 receptor and on 5-HT2 receptor were 26 nM and 2650 nM, respectively. The minimal effective dose in the assay on serum corticosterone was 0.1 mg/kg; in assay [2], 1 mg/kg.
`C=C1C=C2c3cccc4c3[C@@H](CN4)C[C@H]2N(C)C1` [Example 4, (3β)-2,3-Dihydrolysergene]: the IC50 on 5-HT1 receptor was found to be 80 nM; on 5-HT2 receptor it was 3820 nM. Besides, the “Selectivity Ratio” value with 5-HT1 receptor was determined as 48.
Turning to `CSC[C@@H]1C=C2c3cccc4c3[C@@H](CN4)C[C@H]2N(C)C1` [Example 5, (3β,5β,8β)-9,10-Didehydro-2,3-dihydro-6-methyl-8-(methylthiomethyl) ergoline], the IC50 at 5-HT1 receptor was determined as 20 nM; on 5-HT2 receptor it was 1330 nM. For the same compound, the “Selectivity Ratio” value in the assay on 5-HT1 receptor was 66. Moreover, the minimal effective dose with serum corticosterone is 1 mg/kg; in assay [2] it was 0.1 mg/kg.
In the case of `CN1C[C@H](CC#N)C=C2c3cccc4c3[C@@H](CN4)C[C@H]21` [Example 6, (3β,5β,8β)-9,10-Didehydro-2,3-dihydro-6-methylergoline-8-acetonitrile], the figures for the IC50 at 5-HT1 receptor and at 5-HT2 receptor were 20 nM and 2120 nM, respectively. The minimal effective dose (with serum corticosterone; in assay [2]) was 0.1 mg/kg each time.
In the case of `CN1C[C@H](CSc2ccccc2)C=C2c3cccc4c3[C@@H](CN4)C[C@H]21` [Example 7, (3β,5β,8β)-9,10-Didehydro-2,3-dihydro-6-methyl-8-(phenylthiomethyl) ergoline], at 5-HT1 receptor, the IC50 was determined as 8 nM and the “Selectivity Ratio” value turned out to be 26. Besides, at 5-HT2 receptor, the IC50 came out at 210 nM.
`CN1C[C@H](CSc2ccccn2)C=C2c3cccc4c3[C@@H](CN4)C[C@H]21` [Example 8, (3β,5β,8β)-9,10-Didehydro-2,3-dihydro-6-methyl-8-(2-pyridylthiomethyl)ergoline]: the IC50 at 5-HT1 receptor turned out to be 3 nM; on 5-HT2 receptor, 110 nM. Also, the “Selectivity Ratio” value in the assay with 5-HT1 receptor is listed as 28.
Turning to `COC(=O)[C@@H]1C=C2c3cccc4c3[C@@H](CN4)C[C@H]2N(C)C1` [Example 9, (3β)-2,3-Dihydro-methyllysergate], the IC50 is 40 nM on 5-HT1 receptor and 1620 nM at 5-HT2 receptor. Also, the “Selectivity Ratio” value with 5-HT1 receptor was 40.
For `CCCN1C[C@H](C)C=C2c3cccc4c3[C@@H](CN4)C[C@H]21` [Example 10, (3β,5β,8β)-9,10-Didehydro-2,3-dihydro-8-methyl-6-propylergoline], the IC50 on 5-HT1 receptor was 240 nM; on 5-HT2 receptor, over 1000 nM.
In turn, `NCCc1c[nH]c2ccc(O)cc12` [serotonin, 5-hydroxytryptamine, reference compound] gave an IC50 at 5-HT1 receptor of 4 nM. This lies in the single-digit nanomolar range.
